According to patent US20230080054A1 (ILDONG PHARMACEUTICAL CO., LTD., priority 2021, published 2023):

Molecular target: T1, human ANO6 (Homo sapiens, UniProt Q4KMQ2)
T1 construct: expressed in transfected cells
T1 sequence (Q4KMQ2 1-931 isoform Q4KMQ2-2): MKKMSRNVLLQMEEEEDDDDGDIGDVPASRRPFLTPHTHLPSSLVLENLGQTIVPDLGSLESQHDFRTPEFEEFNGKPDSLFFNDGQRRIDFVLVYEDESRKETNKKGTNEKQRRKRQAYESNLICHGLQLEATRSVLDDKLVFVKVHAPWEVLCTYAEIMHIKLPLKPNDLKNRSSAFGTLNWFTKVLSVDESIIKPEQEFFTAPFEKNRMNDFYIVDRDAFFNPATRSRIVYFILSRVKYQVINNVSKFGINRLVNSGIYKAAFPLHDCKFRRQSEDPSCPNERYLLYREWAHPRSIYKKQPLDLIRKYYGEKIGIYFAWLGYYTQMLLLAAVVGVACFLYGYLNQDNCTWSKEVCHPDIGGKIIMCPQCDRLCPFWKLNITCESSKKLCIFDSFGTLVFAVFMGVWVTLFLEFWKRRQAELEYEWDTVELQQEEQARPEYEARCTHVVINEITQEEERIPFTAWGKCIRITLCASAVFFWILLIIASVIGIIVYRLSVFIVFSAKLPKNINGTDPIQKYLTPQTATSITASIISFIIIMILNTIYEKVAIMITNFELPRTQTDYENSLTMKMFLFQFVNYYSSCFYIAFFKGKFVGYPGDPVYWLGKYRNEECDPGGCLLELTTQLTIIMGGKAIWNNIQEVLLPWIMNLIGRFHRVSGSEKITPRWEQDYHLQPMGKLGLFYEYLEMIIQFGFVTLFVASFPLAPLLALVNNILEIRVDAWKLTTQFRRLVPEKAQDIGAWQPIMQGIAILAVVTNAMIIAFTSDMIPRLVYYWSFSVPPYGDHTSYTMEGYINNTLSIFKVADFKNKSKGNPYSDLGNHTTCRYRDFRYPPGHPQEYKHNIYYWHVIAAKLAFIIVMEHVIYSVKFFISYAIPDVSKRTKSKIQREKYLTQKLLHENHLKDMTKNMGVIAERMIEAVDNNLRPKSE
Assay: LACT C2 assay (phosphatidylserine scramblase function assay)
Type: cell-based
Conditions: FRT cells expressing human ANO6, 10 μM ionomycin; for inhibition at 0.1 µM: test compound 100 nM, read-out: Inhibition Level 100 nM; for inhibition at 1 µM: test compound 1 μM, read-out: Inhibition Level 1 μM
Source text: Phosphatidylserine Scramblase Function Assay
1. Materials and Instruments
Ionomycin (Alomonelab, cat. #I-700), DAPI (Sigma-Aldrich, cat. #D8417), paraformaldehyde (Biosesang, cat. #P2031), Lionheart FX Automated Microscope (BioTek, Winooski), Python3 (Python Software Foundation), and OpenCV (Open Source Computer Vision Library).
Fisher rat thyroid (FRT) cells stably expressing human ANO6 (GenBank accession no. NP_001191732.1, provided by J. H. Nam, Dongguk University College of Medicine, Korea) were grown in DMEM/Ham's F-12 (1:1) medium with 10% FBS, 2 mM L-549 glutamine, 100 units/mL penicillin, and 100 μg/mL streptomycin at 37° C. and 5% CO2.
FRT cells stably expressing human ANO6 were plated in 96 well black-walled microplates at a density of 2×10^4 cells/well. After 24 hours incubation, cells were treated with the test compound (dissolved in DMSO) were treated to each well to become 1% v/v DMSO for 10 minutes, then 10 μM of ionomycin was applied. Finally each well was washed with 200 μL PBS after 10 minutes. After washout, the phosphatidylserine and nuclei were stained with PBS containing 500 nM Lactadherin-C2 (Lact-C2)-GFP, then cells were washed with 200 μL PBS. Cells were fixed with 4% paraformaldehyde for 5 minutes at room temperature. For morphological analysis, some cells were stained with fluorescently labelled DAPI for 15 minutes at room temperature. Quantitative analysis of the fluorescence intensity of Lact-C2-GFP was performed with Python3 and OpenCV. OpenCV was used to remove background and noise pixels, and the sum of all remaining pixel values was used to evaluate the fluorescence intensity of Lact-C2-GFP.
The inhibitory activity (%) of each of the test compounds was obtained by the following steps. In each row of 96 well plate, the inhibitory activity of each of the test compounds was calculated as percentages. The inhibitory activity of a negative control group to which neither compounds nor ionomycin were treated was set to be 100%, and the inhibitory activity of a positive control group to which ionomycin was treated and compounds were not treated was set to be 0%. The assay was performed in triplicate, and the results were averaged.

Row | SMILES | inhibition at 0.1 µM [%] | inhibition at 1 µM [%]
1 | O=C(NCc1ccccc1C(F)(F)F)c1cccc(Nc2ncc(-c3cccc(F)c3)cn2)c1 [Compound 204, 3-((5-(3-fluorophenyl)pyrimidin-2-yl)amino)-N-(2-(trifluoromethyl)benzyl)benzamide] | < 30 | 30 to 60
2 | O=C(NCc1c(F)cc(F)cc1F)c1cccc(Nc2ncc(-c3cccc(F)c3)cn2)c1 [Compound 205, 3-((5-(3-fluorophenyl)pyrimidin-2-yl)amino)-N-(2,4,6-trifluorobenzyl)benzamide] | < 30 | 30 to 60
3 | Cc1ccc(CNC(=O)c2cccc(Nc3ncc(-c4cccc(F)c4)cn3)c2)c(C)c1 [Compound 206, N-(2,4-dimethylbenzyl)-3-((5-(3-fluorophenyl)pyrimidin-2-yl)amino)benzamide] | < 30 | 30 to 60
4 | O=C(NCc1ccc(Cl)cc1Cl)c1cccc(Nc2ncc(-c3cccc(F)c3)cn2)c1 [Compound 207, N-(2,4-dichlorobenzyl)-3-((5-(3-fluorophenyl)pyrimidin-2-yl)amino)benzamide] | < 30 | 30 to 60
5 | O=C(NCc1ccc(C(F)(F)F)cc1C(F)(F)F)c1cccc(Nc2ncc(-c3cccc(F)c3)cn2)c1 [Compound 208, N-(2,4-bis(trifluoromethyl)benzyl)-3-((5-(3-fluorophenyl)pyrimidin-2-yl)amino)benzamide] | < 30 | 30 to 60
6 | O=C(NCc1cc(F)c(F)cc1F)c1cccc(Nc2ncc(-c3cccc(F)c3)cn2)c1 [Compound 209, 3-((5-(3-fluorophenyl)pyrimidin-2-yl)amino)-N-(2,4,5-trifluorobenzyl)benzamide] | < 30 | < 30
7 | Cc1cc(F)ccc1CNC(=O)c1cccc(Nc2ccc(-c3ccccc3)nn2)c1 [Compound 210, N-(4-fluoro-2-methylbenzyl)-3-((6-phenylpyridazin-3-yl)amino)benzamide] | < 30 | ≥ 60
8 | O=C(NCc1ccc(F)c(Cl)c1)c1cccc(Nc2ccc(-c3ccccc3)nn2)c1 [Compound 211, N-(3-chloro-4-fluorobenzyl)-3-((6-phenylpyridazin-3-yl)amino)benzamide] | < 30 | ≥ 60
9 | N#CC(NC(=O)c1cccc(Nc2ccc(-c3ccccc3)nn2)c1)c1ccc(F)cc1 (stereo not shown) [Compound 212, N-(cyano(4-fluorophenyl)methyl)-3-((6-phenylpyridazin-3-yl)amino)benzamide] | < 30 | < 30
10 | CC(C)(NC(=O)c1cccc(Nc2ccc(-c3ccccc3)nn2)c1)c1ccc(F)cc1 [Compound 213, N-(2-(4-fluorophenyl)propan-2-yl)-3-((6-phenylpyridazin-3-yl)amino)benzamide] | < 30 | 30 to 60
11 | COc1cc(F)ccc1CNC(=O)c1cccc(Nc2ccc(-c3ccccc3)nn2)c1 [Compound 214, N-(4-fluoro-2-methoxybenzyl)-3-((6-phenylpyridazin-3-yl)amino)benzamide] | < 30 | 30 to 60
12 | O=C(NCc1ccc(F)cc1F)c1cccc(Nc2ncc(-c3cccc(F)c3)cn2)c1 [Compound 215, N-(2,4-difluorobenzyl)-3-((5-(3-fluorophenyl)pyrimidin-2-yl)amino)benzamide] | < 30 | < 30

The remaining lines, values ahead:

Row | inhibition at 0.1 µM [%] | inhibition at 1 µM [%] | SMILES
13 | < 30 | < 30 | O=C(NCc1ccccc1Br)c1cccc(Nc2ncc(-c3cccc(F)c3)cn2)c1 [Compound 216, N-(2-bromobenzyl)-3-((5-(3-fluorophenyl)pyrimidin-2-yl)amino)benzamide]
14 | < 30 | 30 to 60 | O=C(NCc1ccc(F)c(F)c1F)c1cccc(Nc2ncc(-c3cccc(F)c3)cn2)c1 [Compound 217, 3-((5-(3-fluorophenyl)pyrimidin-2-yl)amino)-N-(2,3,4-trifluorobenzyl)benzamide]
15 | < 30 | 30 to 60 | N#CC1(NC(=O)c2cccc(Nc3ncc(-c4cccc(F)c4)cn3)c2)CC1 [Compound 218, N-(1-cyanocyclopropyl)-3-((5-(3-fluorophenyl)pyrimidin-2-yl)amino)benzamide]
16 | < 30 | < 30 | O=C(NC1(CO)CC1)c1cccc(Nc2ncc(-c3cccc(F)c3)cn2)c1 [Compound 219, 3-((5-(3-fluorophenyl)pyrimidin-2-yl)amino)-N-(1-(hydroxymethyl)cyclopropyl)benzamide]
17 | 30 to 60 |  | CCN1CCN(c2cc(F)ccc2CNC(=O)c2cccc(Nc3ccc(-c4ccccc4)nn3)c2)CC1 [Compound 220, N-(2-(4-ethylpiperazin-1-yl)-4-fluorobenzyl)-3-((6-phenylpyridazin-3-yl)amino)benzamide]
18 | 30 to 60 | ≥ 60 | O=C(N[C@@H]1C[C@H]1c1ccc(Cl)c(F)c1)c1cccc(Nc2ccc(-c3ccccc3)nn2)c1 [Compound 221, N-((1R,2S)-2-(4-chloro-3-fluorophenyl)cyclopropyl)-3-((6-phenylpyridazin-3-yl)amino)benzamide]
19 | < 30 | 30 to 60 | CN1CCN(c2cc(F)ccc2CNC(=O)c2cccc(Nc3ccc(-c4ccccc4)nn3)c2)CC1 [Compound 222, N-(4-fluoro-2-(4-methylpiperazin-1-yl)benzyl)-3-((6-phenylpyridazin-3-yl)amino)benzamide]
20 | < 30 | 30 to 60 | N#CC1(NC(=O)c2cccc(Nc3ccc(-c4cccc(F)c4)nn3)c2)CC1 [Compound 223, N-(1-cyanocyclopropyl)-3-((6-(3-fluorophenyl)pyridazin-3-yl)amino)benzamide]
21 | < 30 | < 30 | O=C(NC1(CO)CC1)c1cccc(Nc2ccc(-c3cccc(F)c3)nn2)c1 [Compound 224, 3-((6-(3-fluorophenyl)pyridazin-3-yl)amino)-N-(1-(hydroxymethyl)cyclopropyl)benzamide]
22 | < 30 | 30 to 60 | N#CC1(NC(=O)c2cccc(Nc3ccc(-c4ccccc4)nn3)c2)CC1 [Compound 225, N-(1-cyanocyclopropyl)-3-((6-phenylpyridazin-3-yl)amino)benzamide]
23 | < 30 | < 30 | CCN1CCN(c2cc(CNC(=O)c3cccc(Nc4ccc(-c5ccccc5)nn4)c3)ccc2F)CC1 [Compound 226, N-(3-(4-ethylpiperazin-1-yl)-4-fluorobenzyl)-3-((6-phenylpyridazin-3-yl)amino)benzamide]
24 | < 30 | 30 to 60 | CN1CCN(c2cc(CNC(=O)c3cccc(Nc4ccc(-c5ccccc5)nn4)c3)ccc2F)CC1 [Compound 227, N-(4-fluoro-3-(4-methylpiperazin-1-yl)benzyl)-3-((6-phenylpyridazin-3-yl)amino)benzamide]
25 | < 30 | < 30 | O=C(NC1(CO)CC1)c1cccc(Nc2ccc(-c3ccccc3)nn2)c1 [Compound 228, N-(1-(hydroxymethyl)cyclopropyl)-3-((6-phenylpyridazin-3-yl)amino)benzamide]
